This is an account of results in patent US12589099B2 (priority 2021, dated 2026).

Series [1] deals with Aspergillus brasiliensis (ATCC No. 16404). As to the kind of experiment: USP 51 Preservative Challenge Test. The class given is cell-based. The conditions noted are these: A. brasiliensis ATCC 16404; initial Log10 5.3. As for the experimental part: (§1) In order to assess the anti-microbial properties of ALPHA-1062, the USP (US Pharmacopeia) Chapter 51 Preservative Challenge Test (USP 51) was employed. The USP 51 is a common method used to gauge preservative effectiveness. Much like a Preservative Challenge Screen, it is used to evaluate the effect of preservatives in cosmetics, personal care products, and drug products. Preservatives are typically antimicrobial ingredients that are added to aqueous product formulations to help maintain the safety of the product by inhibiting the growth and reducing the number of microbial contaminants.
(§2) In the context of the present invention, ALPHA-1062 (in the form of the gluconate salt) was assessed in place of (as) a preservative. No additional preservative was added to the ALPHA-1062 gluconate preparation, rather an anti-microbial effect of the agent itself (ALPHA-1062) was assessed. ALPHA-1062 is therefore the anti-microbial agent in the assay and experiments described below.
(§3) The USP 51 challenge test utilizes 5 microorganisms (3 bacteria and 2 fungi) for challenge testing. Each of the microorganisms are known strains of pathogenic microorganisms and they represent a wide range of microbial physiologies.
(§4) Cultures of the following microorganisms were applied, as per standard guidelines for USP 51: Candida albicans (ATCC No. 10231), Aspergillus brasiliensis (ATCC No. 16404), Escherichia coli (ATCC No. 8739), Pseudomonas aeruginosa (ATCC No. 9027), and Staphylococcus aureus (ATCC No. 6538).
(§5) The test was conducted in five sterile, capped bacteriological containers of suitable size into which a sufficient volume of product has been transferred. Each container was inoculated with one of the prepared and standardized inoculums and was mixed accordingly. The volume of the suspension inoculum used was between 0.5% and 1.0% of the volume of the product. The concentration of test microorganisms that was added to the product was such that the final concentration of the test preparation after inoculation was between 1×10^5 and 1×10^6 CFU per mL of the product, according to standard guidelines for Category 2 products.
(§6) The initial concentration of viable microorganisms in each test preparation was estimated based on the concentration of microorganisms in each of the standardized inoculums, as determined by the plate-count method.
(§7) The inoculated containers were incubated at 22.5±2.5° C. and each container was sampled at the appropriate intervals, as specified in Table 3. Any changes observed in the appearance of the culture was recorded at these intervals. By using the plate-count procedure, the number of CFU present in each test preparation was determined for the applicable intervals.
(§8) An inactivator (neutralizer) of the specific antimicrobial was incorporated in the plate count or in the appropriate dilution prepared for plating. These conditions were determined in the validation study for that sample based upon the conditions of media and microbial recovery incubation times listed in Table 2. Using the calculated concentrations of CFU per mL present at the start of the test, the change in log 10 values of the concentration of CFU per mL for each microorganism was calculated at the applicable test intervals, and the changes were expressed in terms of log reductions.
(§9) The USP Criteria for Category 2 were employed in order to determine the presence of an anti-microbial effect. For bacteria, an antimicrobial effect is evident when at least a 2.0 log reduction from the initial count is evident at 14 days and no increase is evident from the 14-day count at 28 days. For yeast and molds, an antimicrobial effect is evident when no increase from the initial calculated count is determined at 14 and 28 days.

In series [2] the test system is Candida albicans (ATCC No. 10231). As to the kind of experiment: USP 51 Preservative Challenge Test. The series is classed as cell-based. The conditions noted are these: C. albicans ATCC 10231. As for the experimental part:
as §1, §2, §3, §4, §5, §6, §7, §8, §9

Series [3] deals with Escherichia coli (ATCC No. 8739). The series is described as follows: USP 51 Preservative Challenge Test. The class given is cell-based. The conditions noted are these: E. coli ATCC 8739. As for the experimental part: as §1, §2, §3, §4, §5, §6, §7, §8, §9
The subject of series [4] is Pseudomonas aeruginosa (ATCC No. 9027). As to the kind of experiment: USP 51 Preservative Challenge Test. The series is classed as cell-based. The note with it: P. aeruginosa ATCC 9027. The protocol:
as §1, §2, §3, §4, §5, §6, §7, §8, §9

Series [5] relates to Staphylococcus aureus (ATCC No. 6538). As to the kind of experiment: USP 51 Preservative Challenge Test. The class given is cell-based. The note with it: S. aureus ATCC 6538. As for the experimental part:
as §1, §2, §3, §4, §5, §6, §7, §8, §9

Series [6] deals with 5 microorganisms (3 bacteria and 2 fungi). The series is described as follows: USP 51 Preservative Challenge Test, overall assessment by USP Criteria for Category 2. The series is classed as cell-based. The conditions noted are these: 14 and 28 days. The protocol:
as §1
In the context of the present invention, ALPHA-1062 (in the form of the gluconate salt) was assessed in place of (as) a preservative. No additional preservative was added to the ALPHA-1062 gluconate preparation, rather an anti-microbial effect of the agent itself (ALPHA-1062) was assessed. ALPHA-1062 is therefore the anti-microbial agent in the assay and experiments described below. […]
The inoculated containers were incubated at 22.5±2.5° C. and each container was sampled at the appropriate intervals, as specified in Table 3. Any changes observed in the appearance of the culture was recorded at these intervals. By using the plate-count procedure, the number of CFU present in each test preparation was determined for the applicable intervals. […]

For series [7] the following is noted: 43% RH (RT), up to 5 days; cited from earlier work.
Where [8] appears, read: initial 6.7 × 10^5 CFU/mL (Log10 5.8), 22.5±2.5° C., no additional preservative.
Where [9] appears, read: initial 9.1 × 10^5 CFU/mL (Log10 6.0), 22.5±2.5° C., no additional preservative.
The mark [10] stands for this setting: initial 2.9 × 10^5 CFU/mL (Log10 5.5), 22.5±2.5° C., no additional preservative.
Setting [11] is: initial 4.0 × 10^5 CFU/mL (Log10 5.6), 22.5±2.5° C., no additional preservative.

Some results are limits rather than exact numbers.

For `COc1ccc2c3c1O[C@H]1C[C@@H](OC(=O)c4ccccc4)C=C[C@@]31CCN(C)C2` [ALPHA-1062 Gluconate], the “Day 14 Log Reduction” value in series [1] was 3.1; in series [2] (initial Log10 5.8), 4.8; in series [3] (initial Log10 6.0) it was 5.0; in series [4] (initial Log10 5.5), 4.5; in series [5] (initial Log10 5.6), 4.6. Further, the “Day 28 Log Reduction” value worked out at 3.1 in series [1]; 4.8 in series [2] (initial Log10 5.8); 5.0 in series [3] (initial Log10 6.0); 4.5 in series [4] (initial Log10 5.5); 4.6 in series [5] (initial Log10 5.6). Also, the “Day 14 CFU/mL” value in series [2] (setting [8]), in series [3] (setting [9]), in series [4] (setting [10]) and in series [5] (setting [11]) was under 10 CFU/mL each time. Further, the “Day 28 CFU/mL” value in series [2] (setting [8]), in series [3] (setting [9]), in series [4] (setting [10]) and in series [5] (setting [11]) was under 10 CFU/mL each time. The “anti-microbial effect against all 5 organisms tested in the USP 51” value in series [6] was “strong anti-microbial effect”.
For the molecule `COc1ccc2c3c1O[C@H]1C[C@@H](OC(=O)c4ccccc4)C=C[C@@]31CCN(C)C2.O=C(O)C(O)C(O)C(O)C(O)CO` [Form A], in series [7], the “solid state stability of the crystalline form” value is “kinetically stable”.
